From ChEMBL document CHEMBL1201862, “PubChem BioAssay data set” (2004)
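Interpolation was linear, between the two tested concentrations surrounding the appropriate level; five concentrations were tested over 48 hours in 96-well plates. GI50 marks 50% less growth.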 Activity calls are given as the source filed them. No stated cut-off is given here; in the data, active = GI50 up to about 1.1 µM and inactive = higher.

Experiments:
Assay in all cases: NCI tumour cell line growth inhibition, 48 h
786-0 = test system: 786-0
COLO 205 = test system: COLO 205
DU-145 = test system: DU-145
IGROV-1 = test system: IGROV-1
LOX IMVI = test system: LOX IMVI
MDA-N = test system: MDA-N
Malme-3M = test system: Malme-3M
OVCAR-4 = test system: OVCAR-4
RXF 393 = test system: RXF 393
SF-268 = test system: SF-268
SK-MEL-2 = test system: SK-MEL-2
SK-MEL-5 = test system: SK-MEL-5
SK-OV-3 = test system: SK-OV-3
SN12C = test system: SN12C
SNB-75 = test system: SNB-75
SW-620 = test system: SW-620
T47D = test system: T47D
U-251 = test system: U-251
UACC-62 = test system: UACC-62
A498 = test system: A498

Row | Structure (SMILES) | GI50 (786-0) | GI50 (COLO 205) | GI50 (DU-145) | GI50 (IGROV-1) | GI50 (LOX IMVI) | GI50 (MDA-N) | GI50 (Malme-3M) | GI50 (OVCAR-4) | GI50 (RXF 393) | GI50 (SF-268) | GI50 (SK-MEL-2) | GI50 (SK-MEL-5) | GI50 (SK-OV-3) | GI50 (SN12C) | GI50 (SNB-75) | GI50 (SW-620) | GI50 (T47D) | GI50 (U-251) | GI50 (UACC-62) | GI50 (A498)
1 | c1ccc(-n2nc3ccc4nonc4c3n2)cc1 | > 100 µM (inactive) | > 100 µM (inactive) | > 100 µM (inactive) | > 100 µM (inactive) | > 100 µM (inactive) | > 100 µM (inactive) | > 100 µM (inactive) | > 100 µM (inactive) | > 100 µM (inactive) | > 100 µM (inactive) | > 100 µM (inactive) | > 100 µM (inactive) | > 100 µM (inactive) | > 100 µM (inactive) | 49.1 µM (inactive) | > 100 µM (inactive) | > 100 µM (inactive) | > 100 µM (inactive) | > 100 µM (inactive) | –
2 | Cc1nc(O)nc2nc3ccc(Cl)cc3c(NCCNCCO)c12 | 8.75 µM (inactive) | 8.99 µM (inactive) | 16 µM (inactive) | 12.3 µM (inactive) | 8.83 µM (inactive) | 12.8 µM (inactive) | 15.2 µM (inactive) | 12.4 µM (inactive) | 14.6 µM (inactive) | 10.1 µM (inactive) | 14.9 µM (inactive) | 12.3 µM (inactive) | 11.4 µM (inactive) | 7.18 µM (inactive) | – | 6.87 µM (inactive) | 10.3 µM (inactive) | 8.73 µM (inactive) | 12 µM (inactive) | 20.3 µM (inactive)
3 | CCOC(=O)c1nnsc1NC(=O)Nc1ccc(Cl)cc1 | 21.1 µM (inactive) | 67.3 µM (inactive) | 56.5 µM (inactive) | 31 µM (inactive) | – | 32.8 µM (inactive) | 75.5 µM (inactive) | 21.1 µM (inactive) | > 100 µM (inactive) | 57.5 µM (inactive) | > 100 µM (inactive) | > 100 µM (inactive) | – | 35.2 µM (inactive) | 21.1 µM (inactive) | > 100 µM (inactive) | 34.3 µM (inactive) | > 100 µM (inactive) | 71 µM (inactive) | –
4 | Cc1cc(-c2c(Br)cc(C(=O)O)n2C)on1 | > 100 µM (inactive) | > 100 µM (inactive) | > 100 µM (inactive) | – | > 100 µM (inactive) | > 100 µM (inactive) | > 100 µM (inactive) | > 100 µM (inactive) | – | > 100 µM (inactive) | > 100 µM (inactive) | > 100 µM (inactive) | > 100 µM (inactive) | > 100 µM (inactive) | > 100 µM (inactive) | > 100 µM (inactive) | > 100 µM (inactive) | > 100 µM (inactive) | > 100 µM (inactive) | > 100 µM (inactive)
5 | Nc1ccc(Oc2ccc(C34CC5CC(C3)CC(c3ccc(Oc6ccc(N)c(O)c6)cc3)(C5)C4)cc2)cc1O | 4.36 µM (inactive) | 1.52 µM (inactive) | 1.71 µM (inactive) | 1.5 µM (inactive) | 1.69 µM (inactive) | 1.95 µM (inactive) | 1.85 µM (inactive) | 2.24 µM (inactive) | 1.41 µM (inactive) | 1.35 µM (inactive) | 2.07 µM (inactive) | 1.61 µM (inactive) | 3.1 µM (inactive) | 2.45 µM (inactive) | – | 2.89 µM (inactive) | 1.76 µM (inactive) | 1.36 µM (inactive) | 2.25 µM (inactive) | 7.66 µM (inactive)
6 | N=C(N)NS(=O)(=O)c1ccc(Nc2c3ccccc3nc3c(C(=O)NNCCO)cccc23)cc1 | 0.436 µM (active) | 0.183 µM (active) | 0.578 µM (active) | 0.153 µM (active) | 0.165 µM (active) | 0.136 µM (active) | 0.14 µM (active) | 0.295 µM (active) | 0.186 µM (active) | 0.141 µM (active) | 0.156 µM (active) | 0.123 µM (active) | > 1 µM (active) | 0.282 µM (active) | – | 0.164 µM (active) | 0.12 µM (active) | 0.139 µM (active) | 0.27 µM (active) | > 1 µM (active)
7 | Clc1ccc2c(NC3CCC(N4CCCCC4)CC3)ccnc2c1 (stereo not drawn) | 15.4 µM (inactive) | 11.7 µM (inactive) | 27.4 µM (inactive) | 29.2 µM (inactive) | 14.9 µM (inactive) | 16.7 µM (inactive) | 20.2 µM (inactive) | 26.5 µM (inactive) | 18.2 µM (inactive) | 35.8 µM (inactive) | 18.2 µM (inactive) | 15.2 µM (inactive) | 57.9 µM (inactive) | 34.5 µM (inactive) | – | 27.7 µM (inactive) | 29.4 µM (inactive) | 21 µM (inactive) | 17.9 µM (inactive) | 18.3 µM (inactive)
8 | COc1ccc2c(c1)OCC1Cc3cc4c(cc3OC21)OCO4 (stereo not drawn) | 34.8 µM (inactive) | 35.9 µM (inactive) | 56.4 µM (inactive) | 43 µM (inactive) | 19.4 µM (inactive) | 3.14 µM (inactive) | 54.1 µM (inactive) | – | – | 55.7 µM (inactive) | 30 µM (inactive) | 16.8 µM (inactive) | 37.2 µM (inactive) | 28.4 µM (inactive) | – | 35.7 µM (inactive) | 32.1 µM (inactive) | 42.6 µM (inactive) | 31.3 µM (inactive) | > 100 µM (inactive)
9 | COc1cc2c(c(O)c1OC)C(=O)[C@@H]1CCC(=O)N1C2c1ccccc1 (stereo partly drawn) | > 100 µM (inactive) | > 100 µM (inactive) | > 100 µM (inactive) | > 100 µM (inactive) | 97.1 µM (inactive) | > 100 µM (inactive) | > 100 µM (inactive) | > 100 µM (inactive) | – | > 100 µM (inactive) | > 100 µM (inactive) | > 10 µM (inactive) | > 100 µM (inactive) | > 100 µM (inactive) | 35.6 µM (inactive) | > 100 µM (inactive) | > 100 µM (inactive) | 63.1 µM (inactive) | 44.5 µM (inactive) | > 100 µM (inactive)
10 | Nc1ncnc2c1cnn2Cc1cn(COCC(O)CO)nn1 (stereo not drawn) | > 100 µM (inactive) | > 100 µM (inactive) | > 100 µM (inactive) | > 100 µM (inactive) | > 100 µM (inactive) | > 100 µM (inactive) | – | > 100 µM (inactive) | – | 18.1 µM (inactive) | > 100 µM (inactive) | > 100 µM (inactive) | > 100 µM (inactive) | > 100 µM (inactive) | – | > 100 µM (inactive) | > 100 µM (inactive) | > 100 µM (inactive) | > 100 µM (inactive) | > 100 µM (inactive)
11 | CC(C)(C(=O)NN)c1ccccc1 | > 100 µM (inactive) | > 100 µM (inactive) | > 100 µM (inactive) | 8.79 µM (inactive) | 7.91 µM (inactive) | 42.4 µM (inactive) | > 100 µM (inactive) | – | – | 45.3 µM (inactive) | 21.6 µM (inactive) | > 100 µM (inactive) | > 100 µM (inactive) | > 100 µM (inactive) | > 100 µM (inactive) | 33 µM (inactive) | > 100 µM (inactive) | > 100 µM (inactive) | 19.3 µM (inactive) | > 100 µM (inactive)
12 | COc1ccc(Nc2nc3ccccc3nc2-c2cccs2)cc1OC | > 10 µM (inactive) | > 10 µM (inactive) | > 10 µM (inactive) | > 10 µM (inactive) | > 10 µM (inactive) | > 10 µM (inactive) | – | > 10 µM (inactive) | > 10 µM (inactive) | > 10 µM (inactive) | > 10 µM (inactive) | > 10 µM (inactive) | > 10 µM (inactive) | > 10 µM (inactive) | > 10 µM (inactive) | > 10 µM (inactive) | > 10 µM (inactive) | > 10 µM (inactive) | > 10 µM (inactive) | –
13 | Cc1nn(C(=O)c2ccc(Cl)cc2)c2c1C(/C=C/c1ccccc1)SC(=N)N2 (stereo not drawn) | > 10 µM (inactive) | > 10 µM (inactive) | > 10 µM (inactive) | > 10 µM (inactive) | > 10 µM (inactive) | > 10 µM (inactive) | > 10 µM (inactive) | > 10 µM (inactive) | > 10 µM (inactive) | > 10 µM (inactive) | > 10 µM (inactive) | > 10 µM (inactive) | > 10 µM (inactive) | > 10 µM (inactive) | > 10 µM (inactive) | > 10 µM (inactive) | > 10 µM (inactive) | > 10 µM (inactive) | > 10 µM (inactive) | –
14 | Cc1cc(OCc2nnc3n2N=C(c2cc(F)c(Cl)cc2Cl)/C(=C/c2ccc(-c4ccc(Cl)cc4)o2)S3)ccc1Cl | > 50 µM (inactive) | 10.4 µM (inactive) | > 50 µM (inactive) | 12.1 µM (inactive) | 31.6 µM (inactive) | 21.5 µM (inactive) | 3.9 µM (inactive) | – | > 50 µM (inactive) | > 50 µM (inactive) | > 50 µM (inactive) | 46.5 µM (inactive) | – | 31.3 µM (inactive) | – | 32.9 µM (inactive) | 7.93 µM (inactive) | > 50 µM (inactive) | 18.2 µM (inactive) | 24.7 µM (inactive)
15 | COc1ccc(-c2cc(-c3ccc(C)cc3)n(C3OC(COC(C)=O)C(OC(C)=O)C(OC(C)=O)C3OC(C)=O)c(=S)c2C#N)cc1 (stereo not drawn) | > 100 µM (inactive) | > 100 µM (inactive) | > 100 µM (inactive) | > 100 µM (inactive) | > 100 µM (inactive) | > 100 µM (inactive) | > 100 µM (inactive) | 29.2 µM (inactive) | 79.4 µM (inactive) | > 100 µM (inactive) | – | > 100 µM (inactive) | > 100 µM (inactive) | > 100 µM (inactive) | 27 µM (inactive) | > 100 µM (inactive) | > 100 µM (inactive) | 50.1 µM (inactive) | > 100 µM (inactive) | –
